Data from patent publication US10730886B2, “Compound having effect of inhibiting platelet aggregation and salt thereof, and composition for preventing or treating thrombotic diseases, containing same” (SHIN POONG PHARMACEUTICAL CO., LTD., priority 2015, dated 2020).
Like-named read-outs stand apart in the source and are kept apart here.

Legend:
[1] = system: Human Platelet Rich Plasma (PRP); experiment: Shear stress-induced platelet aggregation inhibition in human platelet rich plasma (PRP), cone-plate viscometer; type: cell-based; settings: for inhibition at 25 µM: Homo sapiens, Platelet
Method: 1-1. Measurement of Platelet Aggregation Inhibitory Effect Using Human Platelet Rich Plasma (PRP)
Blood was collected from the veins of healthy male volunteers who had not taken any medication for more than 2 weeks. All related studies were conducted under the approval of the Seoul National University Institutional Review Board (IRB No. 1305/001-016). During the whole process of study the use of glass containers or glass pipettes was avoided, and the experiments were performed at room temperature. To separate platelet rich plasma (PRP), the blood was collected with 3.2% sodium citrate as an anticoagulant. The whole blood was centrifuged at 150 g for 15 minutes to obtain the supernatant (PRP), and the residue was centrifuged at 2,000 g for 20 minutes to obtain platelet poor plasma (PPP). The number of platelets of the PRP thus obtained was counted with an optical microscope using a hemacytometer. PRP was diluted with PPP so as to include 3×10^8 platelets per 1 ml, and then used in the experiments. PRP was put on a cone-plate viscometer (RotoVisco 1, Thermo Fischer Scientific, USA), and shear stress was applied to the PRP at 37° C. for 3 minutes at a shear rate of 10,800 s^−1. In order to evaluate candidate substances, prior to the induction of platelet aggregation, 598.8 μl of PRP was treated with 1.2 μl of 25 μM candidate substance and incubated at 37° C. for 3 minutes using a thermomixer. After applying the shear stress, 20 μl of PRP was fixed in 280 μl of a suspension buffer containing 0.5% glutaraldehyde (134 mM NaCl, 2.9 mM KCl, 1.0 mM MgCl2.6H2O, 10.0 mM HEPES, 5.0 mM dextrose, 12.0 mM NaHCO3, 0.34 mM Na2HPO4, 0.3% BSA, pH 7.4). Then, the number of single platelets in the suspension was counted using a hemacytometer. The degree of inhibition by the candidate substance was calculated according to the following formula (1). The degree of inhibition was determined by the method described below. No shear stress-applied group served as a control, and only shear stress-applied group served as positive control. Degree of inhibition (%)=[(1−A/B)×100]/[(1−A/C)×100] Formula 1
A: Number of single platelets in the shear stress-applied sample after treatment with candidate substance
B: Number of single platelets in the control group with no shear stress applied
C: Number of single platelets in the positive control group with only shear stress applied

[2] = system: Human Washed Platelets (WP); experiment: Shear stress-induced platelet aggregation inhibition in human washed platelets (WP); type: cell-based; settings: for inhibited shear stress-induced platelet aggregation in WP: 10, 25, 50 μM; for inhibition at 10 µM / inhibition at 25 µM / inhibition at 50 µM: Platelet, human WP, read-out: Degree of inhibition (%, Mean ± SEM)
Method: 1-2. Measurement of Platelet Aggregation Inhibitory Effect Using Human Washed Platelets (WP)
To separate human washed platelets (WP), blood was collected from the veins of healthy males using acid-citrate-dextrose (ACD) as an anticoagulant. At the time of blood collection, platelet activation was inhibited by treatment with 1 μM of prostaglandin E1 (PGE1). The collected blood was centrifuged at 150 g for 15 minutes to obtain PRP from the supernatant, which was centrifuged at 500 g for 10 minutes to obtain platelets. The platelets were suspended in and washed with a washing buffer (134 mM NaCl, 2.9 mM KCl, 1.0 mM MgCl2.6H2O, 10.0 mM HEPES, 5.0 mM dextrose, 12.0 mM NaHCO3, 0.34 mM Na2HPO4, 10% ACD, 0.3% bovine serum albumin, 1 μM PGE1, pH 7.4), and then re-centrifuged at 400 g for 10 minutes. The platelets thus obtained were suspended in the suspension buffer. The number of platelets in WP were counted using a hemacytometer. The platelets were diluted with the suspension buffer so as to include 3×10^8 platelets per 1 ml, and CaCl2 was added to give a final concentration of 2 mM and then used in the experiments. vWF was added to WP to give a final concentration of 10 μg/ml. WP was put on a cone-plate viscometer, and shear stress was applied to the WP at 37° C. for 3 minutes at a shear rate of 10,800 s^−1. In order to evaluate efficacy of candidate substances, prior to the induction of platelet aggregation, WP was treated with 10, 25, and 50 μM of candidate substances and incubated at 37° C. for 3 minutes using a thermomixer. After applying the shear stress, 20 μl of WP was fixed in 280 μl of the suspension buffer containing 0.5% glutaraldehyde. Then, the number of single platelets in the suspension was counted using a hemacytometer. The degree of inhibition by the candidate substance was calculated according to formula (1). No shear stress-applied group served as control, and only shear stress-applied group served as a positive control.

[3] = system: iron chloride (FeCl3)-induced thrombogenesis model; experiment: Arterial thrombosis model, FeCl3-induced carotid artery thrombogenesis; type: in vivo, Sprague-Dawley rats; settings: rat, 25 mg/kg oral; for Time of thrombogenesis: FeCl3 applied 60 min after administration, occlusion time; for Fold (vs. Control): time of thrombogenesis vs. vehicle control
Method: Vehicle (DMSO: Tween 80: DW=1:2:17) or candidate substance (25 mg/kg) was orally administered to overnight-fasted male Sprague-Dawley rats (250 to 300 g). 30 minutes after administration, the rats were anesthetized by intraperitoneal injection of urethane (1.25 g/kg). The anesthetized animals were restrained on the operating table, and the body temperature was maintained using a heating pad during the entire operating procedure. An incision was made around the neck of the animals to carefully expose the right carotid artery, and the adipose tissues attached to the blood vessels were carefully removed. Doppler flow probe (0.5 mm-diameter, MA0.5PSB, Transonic System Inc., USA) was fixed to the exposed carotid artery, and a doppler flow-meter (TS420, Transonic System Inc., USA) was connected thereto. 60 minutes after oral administration, a piece of Whatman No. 1 filter paper (2 mm×1 mm) soaked with 50% FeCl3 solution was attached to the underlying blood vessels to which the probe was fixed. The filter paper was removed after 10 minutes, and the change of blood flow due to thrombus formation in the carotid artery was measured for 60 minutes after the time point of removal. The occlusion time was defined as the time at which the blood flow became zero more than one minute for the first time.

Sprague-Dawley rats = experiment: Bleeding side effect (tail bleeding time) after single oral administration; type: in vivo; settings: rat, tail cut 1 hour after administration
Method: Male Sprague-Dawley rats (250 to 300 g) were fasted overnight and then were orally administered with the candidate substances at each concentration. After 1 hour, the rats were anesthetized by intraperitoneal injection of urethane (1.25 g/kg). The 3 mm portion of the tail tip of the rats was cut and carefully wiped every 30 seconds. Bleeding time was measured in […] until no more blood was drawn, and when the bleeding lasted longer than 30 minutes, the bleeding time was recorded as 30 minutes.

[4] = 0.05 h, human PRP, 25 μM, shear rate 10,800 s^-1, 3 min, read-out: Degree of inhibition (%, Mean ± SEM)
[5] = Table 1 summary bins, concentration and matrix not given, read-out: Inhibitory effect of shear stress-induced platelet aggregation
[6] = human PRP, 25 μM, shear rate 10,800 s^-1, 3 min

| Structure (SMILES) | inhibition at 25 µM [1, 4] [%] | inhibition at 25 µM [1, 5] [%] | Degree of inhibition (%, Mean ± SEM) [1, 6] [%] | inhibited shear stress-induced platelet aggregation in WP [2] | inhibition at 10 µM [2] [%] | inhibition at 25 µM [2] [%] | inhibition at 50 µM [2] [%] | Time of thrombogenesis [3] [s] | Bleeding time (Sprague-Dawley rats; 25 μM (so in the source)) [min] | Bleeding time (Sprague-Dawley rats; 100 μM (so in the source)) [min] | Fold (vs. Control) [3] |
| --- | --- | --- | --- | --- | --- | --- | --- | --- | --- | --- | --- |
| O=C(c1ccc(O)c(O)c1)N1CCc2sccc2C1 [Example 1, (6,7-Dihydrothieno[3,2-c]pyridin-5(4H)-yl)(3,4-dihydroxyphenyl)methanone] | 20 to 30 | 20 to 30 | 23 ± 2 | in a dose-dependent manner | 4 ± 3.5 | 23 ± 1.2 | 27 ± 1.7 | 936 ± 120 | 6.0 ± 0.9 | 6.5 ± 0.9 |  |
| COc1cc(C(=O)N2CCc3sccc3C2)ccc1O [Example 12, (6,7-Dihydrothieno[3,2-c]pyridin-5(4H)-yl)(4-hydroxy-3-methoxyphenyl)methanone] | 20 to 30 | 20 to 30 | 25 ± 6 | in a dose-dependent manner | 10 ± 2.1 | 30 ± 0.9 | 33 ± 2.1 | 665 ± 77 | 6.3 ± 0.6 | 6.5 ± 0.3 | 1.9 |
| CCc1occc(=O)c1OC(=O)c1ccc(O)c(OC)c1 [Example 13, 2-Ethyl-4-oxo-4H-pyran-3-yl 4-hydroxy-3-methoxybenzoate] | 20 to 30 | 20 to 30 | 26 ± 6 | in a dose-dependent manner | 12 ± 3.8 | 29 ± 4.1 | 34 ± 2.7 | 752 ± 69 | 6.5 ± 0.6 | 7.2 ± 0.3 | 2.1 |
| COc1cc(C(=O)Oc2c(C)occc2=O)ccc1O [Example 14, 2-Methyl-4-oxo-4H-pyran-3-yl 4-hydroxy-3-methoxybenzoate] | ≥ 30 | ≥ 30 |  | in a dose-dependent manner | 8 ± 1.5 | 27 ± 2.3 | 39 ± 0.6 | 615 ± 54 | 6.7 ± 0.9 | 6.3 ± 0.6 | 1.7 |
| COc1ccc(NC(=O)c2ccc(O)c(OC)c2)c([N+](=O)[O-])c1 [Example 15, 4-Hydroxy-3-methoxy-N-(4-methoxy-2-nitrophenyl)benzamide] | 20 to 30 | 20 to 30 | 24 ± 8 | in a dose-dependent manner | 14 ± 2.5 | 26 ± 4 | 36 ± 3.2 | 816 ± 78 | 7.3 ± 0.7 | 6.2 ± 0.6 | 2.3 |
| O=C(c1cc(O)ccc1O)N1CCc2sccc2C1 [Example 20, (6,7-Dihydrothieno[3,2-c]pyridin-5(4H)-yl)(2,5-dihydroxyphenyl)methanone] | ≥ 30 | ≥ 30 |  | in a dose-dependent manner | 18 ± 1.5 | 42 ± 4.2 | 46 ± 2.1 | 2122 ± 265 | 6.7 ± 0.6 | 7.7 ± 0.4 |  |
| O=C(c1cc(O)ccc1O)N1CCC(c2noc3ccc(F)cc23)CC1 [Example 23, (2,5-Dihydroxyphenyl)(4-(5-fluorobenzo[d]isoxazol-3-yl)piperidin-1-yl)methanone] | 20 to 30 | 20 to 30 | 28 ± 3 |  |  |  |  | 674 ± 92 |  |  | 1.9 |
